Data on 6 compounds can be found in US20090035364A1, “PARA-SUBSTITUTED 2-ALKOXYPHENOL COMPOUNDS” (priority 2006, published 2009).

A short description of data set [1]: Cooling intensity: panelists taste aqueous solutions, compared with menthol at 2 ppm. In kind it is in vivo, human. The settings on record: tasted by a small group of panelists.
Data set [2] is described as follows: Application in toothpaste: panelist's teeth brushed with toothgel containing the compound. In kind it is in vivo, human. The settings on record: 0.10 g of 10% solution in ethanol in opaque toothgel with peppermint oil and saccharin; after brushing and rinsing. As for the experimental part: The chemicals are mixed in the toothgel, a piece of toothgel is put on a toothbrush and a panelist's teeth are brushed. The mouth is rinsed with water and the water is spat out. […] The cooling perception lasts for 45 minutes.

As a reminder, the melting point is the temperature of the solid-liquid transition.

Consider `COc1cc(CNC(c2ccccc2)c2ccccc2)ccc1O` [Example 1, 4-((benzhydrylamino)methyl)-2-methoxyphenol], for which the “Concentration having a cooling intensity similar to or slightly higher than that of a solution of menthol at 2 ppm” value in data set [1] was determined as 0.5 ppm.
As to `COc1cc(COC(c2ccccc2)c2ccccc2)ccc1O` [Example 4, 4-((benzhydryloxy)methyl)-2-methoxyphenol], the “Concentration having a cooling intensity similar to or slightly higher than that of a solution of menthol at 2 ppm” value in data set [1] amounted to 1.0 ppm. In data set [2], the “Cooling sensation felt by the panelist” value is listed as “intense cooling sensation” and the “Duration of cooling perception” value was 45 min.
Compound `COc1cc(CNC2c3ccccc3-c3ccccc32)ccc1O` [Example 5, 4-((9H-fluoren-9-ylamino)methyl)-2-methoxyphenol] gave a melting point of 148 to 150 °C.
The same measure, in the same setting: the value for `CCOc1cc(CNC(c2ccccc2)c2ccccc2)ccc1O` [Example 6, 4-((benzhydrylamino)methyl)-2-ethoxyphenol] was 89 to 91 °C.
`CC1CCC(C(C)C)C(O)C1` (centres unmarked) [I-Menthol, reference compound]: the “Concentration having a cooling intensity similar to or slightly higher than that of a solution of menthol at 2 ppm” value in data set [1] was 2.0 ppm.
Still for that read-out and setting: the value for `CCNC(=O)C1CC(C)CCC1C(C)C` (centres unmarked) [N-ethyl p-menthanecarboxamide (WS-3), N-ethyl p-menthanecarboxamide, reference compound] was 1.5 ppm.
